Results published in patent publication US12187722B2, “Small molecule inhibitors of TEAD transcription factors” (The General Hospital Corporation, priority 2019, dated 2025).
Where “and” joins values, the source holds several entries; their conditions need not be identical. Equal values may be shown once.

Target: TEAD2 (Homo sapiens (Human), UniProt Q15562)
Assay: In vitro palmitoylation (TEAD2 autopalmitoylation, streptavidin blot)
Format: biochemical
Settings: for inhibition at 10 µM / % of inhibition of TEAD2 palmitoylation at 10 μM: compound at 10 μM
Method: Recombinant GST-TEAD2 or His6TEAD2 (500 ng) protein was pre-incubated with the compounds at indicated concentrations for 15 min. and then incubated with 1 μM of alkyne palmitoyl-5 CoA (Cayman Chemical) for 30 min or 50 mM MES, pH 6.4, followed by Click reaction with biotin-azide as previously described (Zheng, B. et al., J. Am. Chem. Soc., 2013, 135, 7082-7085). Click reaction was performed with 100 μM biotin-azide, 1 mM tris(2-carboxyethyl) phosphine hydrochloride (TCEP), 100 μM tris[(1-benzyl-1H-1,2,3-triazol-4-yl) methyl] amine (TBTA) and 1 mM CuSO4 for 1 h at RT.
The reactions were terminated by the addition of 12 μL of 6×SDS-sample loading buffer (50 mM Tris-HCl, pH 6.8, 6% SDS, 48% Glycerol, 0.03% Bromophenol Blue, 30 mM EDTA, 9% MeSH). Samples were analysed by SDS-PAGE and Western blot was performed by probing with streptavidin HRP and histidine HRP antibodies independently. Bands intensity obtained from streptavidin blot were quantified using BIORAD, Gel doc system and the percentage of inhibition of Tead2 auto palmitoylation is determined by comparing to the DMSO control treated samples.
These compounds were tested for activity in inhibiting TEAD2 palmitoylation in the assay described above.

Chain of TEAD2 (Q15562 whole entry): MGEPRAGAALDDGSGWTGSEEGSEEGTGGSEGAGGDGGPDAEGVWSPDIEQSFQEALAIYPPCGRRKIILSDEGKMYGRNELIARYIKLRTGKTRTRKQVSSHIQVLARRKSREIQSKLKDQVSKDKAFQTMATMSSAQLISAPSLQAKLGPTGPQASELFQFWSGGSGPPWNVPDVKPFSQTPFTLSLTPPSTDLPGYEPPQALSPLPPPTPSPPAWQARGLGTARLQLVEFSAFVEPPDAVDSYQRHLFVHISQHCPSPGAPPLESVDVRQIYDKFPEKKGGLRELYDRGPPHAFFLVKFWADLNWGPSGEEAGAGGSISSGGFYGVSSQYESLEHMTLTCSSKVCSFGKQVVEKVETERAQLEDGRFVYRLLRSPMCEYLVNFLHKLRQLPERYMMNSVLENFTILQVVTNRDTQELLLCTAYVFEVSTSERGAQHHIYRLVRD

`COc1ccc(Nc2cccc(C(=O)Nc3ccc(C4CCCCC4)cc3Cl)c2)c(C(=O)O)c1` [CP-669] showed an inhibition at 10 µM (Table 3) of 75%.
`CNS(=O)(=O)c1ccc(Nc2ccc(N(C)c3ccc(C4CCCCC4)cc3Cl)cc2C)c(C(=O)O)c1` [CP-671] gave an inhibition at 10 µM (Table 3) of 97%.
`O=C(Nc1ccc(C2CCCCC2)cc1Cl)c1cccc(Nc2ccc(OC3CC3)cc2C(=O)O)c1` [CP-672] was tested, and the inhibition at 10 µM (Table 3) was 55%.
`Cc1cc(N(C)c2ccc(C3CCCCC3)cc2)ncc1Nc1ccc(OC2CC2)cc1C(=O)O` [CP-673] gave an inhibition at 10 µM (Table 3) of 15%.
`COc1ccc(Nc2cc(Nc3ccc(C4CCCCC4)cc3Cl)cc(C(F)(F)F)c2)nc1C(=O)O` [CP-675] gave an inhibition at 10 µM (Table 3) of 83%.
`O=C(O)c1cccc(Nc2cc(Nc3ccc(C4CCCCC4)cc3Cl)cc(C(F)(F)F)c2)c1` [CP-676] gave an inhibition at 10 µM (Table 3) of 97%.
`O=C(O)c1cccnc1Nc1cccc(Nc2ccc(C3CCCCC3)cc2Cl)c1` [CP-677] showed an inhibition at 10 µM (Table 3) of 96%.
For `Cc1cc(N(C)c2ccc(C3CCCCC3)cc2)ccc1Nc1ccc(C(=O)N2CC(C#N)C2)cc1C(=O)O` [CP-678], the inhibition at 10 µM (Table 3) was 59%.
For `Cc1cc(N(C)c2ccc(C3CCCCC3)cc2)ccc1Nc1ccc(C(=O)N2CC(C(N)=O)C2)cc1C(=O)O` [CP-679], the inhibition at 10 µM (Table 3) was 81%.
In the case of `Cc1cc(N(C)c2ccc(C3CCCCC3)cc2Cl)ccc1Nc1cccc(C(=O)O)n1` [CP-681], the inhibition at 10 µM (Table 3) is reported as 8%.
Compound `O=C(O)c1cccc(Nc2cccc(Nc3ccc(C4CCCCC4)cc3Cl)c2)n1` [CP-682] has an inhibition at 10 µM (Table 3) of 51%.
With `N#Cc1cccc(Nc2ccc(Nc3ccc(C45CC6CC(CC(C6)C4)C5)cc3Cl)cc2)n1` [CP-688] the inhibition at 10 µM (Table 3) was 17%.
Work on `CNS(=O)(=O)c1cccc(Nc2ccc(Nc3ccc(C45CC6CC(CC(C6)C4)C5)cc3Cl)cc2)n1` [CP-694] yielded an inhibition at 10 µM (Table 3) of 79%.
`COC(=O)c1ccccc1Nc1cccc(Nc2ccc(C34CC5CC(CC(C5)C3)C4)cc2)c1` [Compound 1] gave an inhibition at 10 µM (Table 2) of 10%.
Compound `COC(=O)c1ccccc1Nc1ccc(Nc2ccc(C34CC5CC(CC(C5)C3)C4)cc2)cc1` [Compound 2] has an inhibition at 10 µM (Table 2) of 0%.
`COC(=O)c1ccccc1Nc1cc(Nc2ccc(C34CC5CC(CC(C5)C3)C4)cc2)cc(C(F)(F)F)c1` [Compound 3] showed an inhibition at 10 µM (Table 2) of 0%.
Work on `COC(=O)c1ccccc1Nc1ccc(C(=O)Nc2ccc(C34CC5CC(CC(C5)C3)C4)cc2)cc1` [Compound 4] yielded an inhibition at 10 µM (Table 2) of 0%.
For `COC(=O)c1ccccc1Nc1ccc(C(=O)Nc2ccc(C34CC5CC(CC(C5)C3)C4)cc2Br)cc1` [Compound 5], the inhibition at 10 µM (Table 2) was 0%.
`COC(=O)c1ccccc1Nc1ccc(C(=O)Nc2ccc(C34CC5CC(CC(C5)C3)C4)cc2Cl)cc1` [Compound 6] was tested, and the inhibition at 10 µM (Table 2) was 0%.
With `N#Cc1ccccc1Nc1ccc(Nc2ccc(C34CC5CC(CC(C5)C3)C4)cc2Cl)cc1` [Compound 7] the inhibition at 10 µM (Table 2) was 30%.
`Clc1cc(C23CC4CC(CC(C4)C2)C3)ccc1Nc1ccc(Cn2cncn2)cc1` [Compound 9] gave an inhibition at 10 µM (Table 2) of 76%.
`Clc1cc(C23CC4CC(CC(C4)C2)C3)ccc1Nc1ccc(Nc2ccccn2)cc1` [Compound 10] was tested, and the inhibition at 10 µM (Table 2) was 0%.
Work on `O=C1CC[n+]2ccccc2N1c1ccc(Nc2ccc(C34CC5CC(CC(C5)C3)C4)cc2Cl)cc1` [Compound 11] yielded an inhibition at 10 µM (Table 2) of 0%.
Compound `CN(c1ccc(Nc2ncccc2C(=O)OCCO)cc1)c1ccc(C23CC4CC(CC(C4)C2)C3)cc1Cl` [Compound 12] has an inhibition at 10 µM (Table 2) of 85%.
In the case of `Cc1ccccc1Nc1ccc(Nc2ccc(C34CC5CC(CC(C5)C3)C4)cc2)cc1` [Compound 13], the inhibition at 10 µM (Table 2) is reported as 26%.
In the case of `CCOC(=O)/C=C/c1ccccc1Nc1ccc(Nc2ccc(C34CC5CC(CC(C5)C3)C4)cc2)cc1` [Compound 14], the inhibition at 10 µM (Table 2) is reported as 0%.
In the case of `O=C1CCc2ccccc2N1c1ccc(Nc2ccc(C34CC5CC(CC(C5)C3)C4)cc2)cc1` [Compound 15], the inhibition at 10 µM (Table 2) is reported as 12%.
In the case of `CCOC(=O)c1cccc(Nc2ccc(C(=O)Nc3ccc(C45CC6CC(CC(C6)C4)C5)cc3)cc2)n1` [Compound 16], the inhibition at 10 µM (Table 2) is reported as 0%.
`COC(=O)c1cccnc1Nc1ccc(Nc2ccc(C34CC5CC(CC(C5)C3)C4)cc2Cl)cc1` [Compound 17] was tested, and the inhibition at 10 µM (Table 2) was 7%.
`O=S1(=O)N=C(Nc2ccc(Nc3ccc(C45CC6CC(CC(C6)C4)C5)cc3Cl)cc2)c2ccccc21` [Compound 18] showed an inhibition at 10 µM (Table 2) of 35%.
With `COc1cccc2c1S(=O)(=O)N=C2Nc1ccc(C23CC4CC(CC(C4)C2)C3)cc1` [Compound 19] the inhibition at 10 µM (Table 2) was 35%.
In the case of `O=C(O)c1ccccc1Nc1ccc(Nc2ccc(C34CC5CC(CC(C5)C3)C4)cc2)cc1` [Compound 24, 2-((4-((4-((3R,5R)-adamantan-1-yl)phenyl)amino)phenyl)amino)benzoic acid], the inhibition at 10 µM (Table 2) is reported as 56%.
`O=C(O)c1ccccc1Nc1cccc(Nc2ccc(C34CC5CC(CC(C5)C3)C4)cc2)c1` [Compound 25] was tested, and the inhibition at 10 µM (Table 2) was 90%.
`O=C(O)c1ccccc1Nc1cc(Nc2ccc(C34CC5CC(CC(C5)C3)C4)cc2)cc(C(F)(F)F)c1` [Compound 26] was tested, and the inhibition at 10 µM (Table 2) was 90%.
For `O=C(O)c1cccnc1Nc1cc(Nc2ccc(C34CC5CC(CC(C5)C3)C4)cc2)cc(C(F)(F)F)c1` [Compound 27], the inhibition at 10 µM (Table 2) was 90%.
With `Cc1ccc(Nc2cc(Nc3ccc(C45CC6CC(CC(C6)C4)C5)cc3)cc(C(F)(F)F)c2)c(C(=O)O)c1` [Compound 28] the inhibition at 10 µM (Table 2) was 10%.
For `O=C(O)c1cc(C(F)(F)F)ccc1Nc1cc(Nc2ccc(C34CC5CC(CC(C5)C3)C4)cc2)cc(C(F)(F)F)c1` [Compound 29], the inhibition at 10 µM (Table 2) was 90%.
With `O=C(O)c1ccccc1Nc1cc(F)cc(Nc2ccc(C34CC5CC(CC(C5)C3)C4)cc2)c1` [Compound 30] the inhibition at 10 µM (Table 2) was 91%.
In the case of `Cc1cc(Nc2ccc(C34CC5CC(CC(C5)C3)C4)cc2)cc(Nc2ncccc2C(=O)O)c1` [Compound 32], the inhibition at 10 µM (Table 2) is reported as 60%.
Compound `O=C(O)c1ccccc1Nc1cc(Nc2ccc(C34CC5CC(CC(C5)C3)C4)cc2Cl)cc(C(F)(F)F)c1` [Compound 33] has an inhibition at 10 µM (Table 2) of 50%.
With `O=C(O)c1ccccc1Nc1ccc(Nc2ccc(C34CC5CC(CC(C5)C3)C4)cc2)nc1` [Compound 34] the inhibition at 10 µM (Table 2) was 14%.
For `O=C(Nc1ccc(C23CC4CC(CC(C4)C2)C3)cc1)c1ccc(Nc2ccccc2C(=O)O)cc1` [Compound 35], the “% of inhibition of TEAD2 palmitoylation at 10 μM” value (“% of inhibition … at 10 μM” for short) (Table 2) was 63% and 86%.
Compound `O=C(Nc1ccc(C23CC4CC(CC(C4)C2)C3)cc1Br)c1ccc(Nc2ccccc2C(=O)O)cc1` [Compound 36] has an inhibition at 10 µM (Table 2) of 100%.
`O=C(Nc1ccc(C23CC4CC(CC(C4)C2)C3)cc1Cl)c1ccc(Nc2ccccc2C(=O)O)cc1` [Compound 37] gave an inhibition at 10 µM (Table 2) of 30%.
Compound `O=C(O)[C@@H]1CCCN1C(=O)Nc1ccc(C23CC4CC(CC(C4)C2)C3)cc1` [Compound 38] has an inhibition at 10 µM (Table 2) of 7%.
For `O=C(O)C1CCCC1Nc1ccc(Nc2ccc(C34CC5CC(CC(C5)C3)C4)cc2Cl)cc1` (stereo not drawn) [Compound 39], the inhibition at 10 µM (Table 2) was 59%.
In the case of `O=C(O)C1CCCC1Nc1ccc(Nc2ccc(C34CC5CC(CC(C5)C3)C4)cc2Cl)cc1` (stereo not drawn) [Compound 40], the “% of inhibition … at 10 μM” value (Table 2) is reported as 43%.
`CC(C)c1ccccc1-c1ccc(Nc2ccc(Nc3ccccc3C(=O)O)cc2)c(Cl)c1` [Compound 41] was tested, and the inhibition at 10 µM (Table 2) was 52%.
With `O=C(O)C1CCCCC1Nc1ccc(Nc2ccc(C34CC5CC(CC(C5)C3)C4)cc2Cl)cc1` (stereo not drawn) [Compound 46] the inhibition at 10 µM (Table 2) was 76%.
For `O=C(O)C1CCCCC1Nc1ccc(Nc2ccc(C34CC5CC(CC(C5)C3)C4)cc2Cl)cc1` (stereo not drawn) [Compound 47], the “% of inhibition … at 10 μM” value (Table 2) was 83%.
Compound `O=C(O)[C@@H]1CCCN1C(=O)c1ccc(Nc2ccc(C34CC5CC(CC(C5)C3)C4)cc2Cl)cc1` [Compound 48] has an inhibition at 10 µM (Table 2) of 87%.
Compound `O=C(O)[C@@H]1CCCN1C(=O)Nc1ccc(Nc2ccc(C34CC5CC(CC(C5)C3)C4)cc2Cl)cc1` [Compound 50] has an inhibition at 10 µM (Table 2) of 0%.
Work on `Cc1ccccc1-c1ccc(Nc2ccc(Nc3ccccc3C(=O)O)cc2)c(Cl)c1` [Compound 51] yielded an inhibition at 10 µM (Table 2) of 79%.
`O=C(O)[C@H]1CCCN1C(=O)Nc1ccc(Nc2ccc(C34CC5CC(CC(C5)C3)C4)cc2Cl)cc1` [Compound 52] was tested, and the inhibition at 10 µM (Table 2) was 79%.
`O=C(O)c1ccccc1Nc1ccc(Nc2ccc(-c3ccccc3C(F)(F)F)cc2Cl)cc1` [Compound 53] was tested, and the inhibition at 10 µM (Table 2) was 5%.
Work on `COc1ccccc1-c1ccc(Nc2ccc(Nc3ccccc3C(=O)O)cc2)c(Cl)c1` [Compound 56] yielded an inhibition at 10 µM (Table 2) of 0%.
`O=C(O)c1ccccc1Nc1ccc(Nc2ccc(-c3ccccc3Cl)cc2Cl)cc1` [Compound 58] showed an inhibition at 10 µM (Table 2) of 60%.
Work on `O=C(O)c1cccnc1Nc1ccc(Nc2ccc(C34CC5CC(CC(C5)C3)C4)cc2Cl)cc1` [Compound 59] yielded an inhibition at 10 µM (Table 2) of 99%.
With `O=C(O)c1cccnc1Nc1ccc(C23CC4CC(CC(C4)C2)C3)cc1Cl` [Compound 60] the inhibition at 10 µM (Table 2) was 100%.
`Cc1ccccc1-c1cc(Cl)c(Nc2ccc(Nc3ccccc3C(=O)O)cc2)cc1C` [Compound 61] showed an inhibition at 10 µM (Table 2) of 70%.
For `O=C(O)c1ccccc1Nc1ccnc(Nc2ccc(C34CC5CC(CC(C5)C3)C4)cc2Cl)n1` [Compound 62], the inhibition at 10 µM (Table 2) was 65%.
`O=C(O)C1CCCC1Nc1cc(Nc2ccc(C34CC5CC(CC(C5)C3)C4)cc2Cl)cc(C(F)(F)F)c1` (stereo not drawn) [Compound 64] showed an inhibition at 10 µM (Table 2) of 0%.
`O=C(O)C1CCCC1Nc1ccc(C23CC4CC(CC(C4)C2)C3)cc1` (stereo not drawn) [Compound 65] was tested, and the inhibition at 10 µM (Table 2) was 74%.
`O=C(O)C1CCCCC1Nc1ccc(C23CC4CC(CC(C4)C2)C3)cc1` (stereo not drawn) [Compound 66] showed an inhibition at 10 µM (Table 2) of 25%.
With `O=C(O)c1ccccc1Nc1ccc(-c2cnc(-c3ccccc3)s2)cc1` [Compound 68] the “inhibition of TEAD2 palmitoylation (YES/NO)” value (Table 2, result printed in words) was “YES”.
In the case of `CC(C)(C)OC(=O)N(c1cnc(Nc2ccc(C34CC5CC(CC(C5)C3)C4)cc2Cl)cn1)c1ccccc1C(=O)O` [Compound 74], the inhibition at 10 µM (Table 2) is reported as 31%.
